Key:
[1] = Serum stability, anti-fungal activity after serum incubation by radial diffusion bioassay; type: in vitro ADME, rat or human serum; details: Activity in Serum t ½ (hr.)
Outline: (§1)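 Peptide at 1 mg/mL mixed with an equal volume of rat or human serum and held at 37° C. Samples taken at 0, 1, 2 and 4 h, extracted on C-18 solid phase, then analysed by HPLC, N-terminal sequencing and ESI/MS. Recovered peptides tested against C. albicans SLU-1 by radial diffusion.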

[2] = type: physicochemical; details: 37° C., at 50 days, acetate buffered saline
Procedure: The lyophilized peptide was dissolved to a concentration of 1 mg/mL in three different buffers. The three formulation buffers used were (a) 10 mM solution acetate, 150 mM sodium chloride pH 4, (b) 10 mM sodium acetate, 150 mM sodium chloride pH 5 and (c) 10 mM sodium acetate, 150 mM sodium chloride pH 6. The formulated peptide samples were incubated at 4° C. and 37C. At each time point, samples were withdrawn from each vial and assayed by C18 reverse phase BPLC, absorbance at 280 nm, and SDS-PAGE. The study was conducted for 50 days.
A 0.46×25 cm Vydac C18 column (cat no. 218TP54) was used on a Shimadzu HPLC system. The column was run in binary gradient mobile phases: A=Water+0.05% TFA, B=acetonitrile+0.05% TFA. […]
Samples were analyzed by SDS polyacrylamide gel electrophoresis, run on Novex 10-20% tricine precast gels (Novex, La Jolla, Calif., EC6625). […] In addition, samples were analyzed photometrically. For this, samples withdrawn at each time point were diluted 6-fold with Millipore water and absorbance was measured at 280 nm and scanning from 210 nm to 340 nm using a Shimadzu UV 160 spectrophotometer. AU samples were filtered prior to absorbance measurement(s).
XMP.284 was soluble in water and unbuffered saline. […] There was very little product loss, as measured by absorbance at 280 nm, in 0.15 M saline buffered with 10 mM acetate at pH 4, 5 or 6. […]

[3] = test system: endotoxin (E. coli O111:B4); assay: Mouse experimental endotoxemia model; type: in vivo; details: endotoxin 20 mg/kg, 7 days
Procedure: Domain III derived peptides are also tested for LPS neutralizing efficacy in an in vivo mouse experimental endotoxemia model. […] This was followed by a second intravenous injection of the peptide to be tested. Injections of saline were used in negative control mice. […] The efficacy of the peptides was measured by a decrease in endotoxemia-associated mortality in peptide-injected mice as compared with control mice. […] No animals survived in the saline control group.

Candida glabrata = type: cell-based
Procedure: (§2) In additional experiments, a fluorescence-activated cell sorter (FACS) based assay was developed to test the fungicidal activity of the peptides. […] Difco) agar. Several colonies were picked from the agar plate and inoculated into 5 mL of Sabouraud's Dextrose media in a sterile 10 mL polypropylene tube. The fungal cultures were incubated for about 18 hours at 30° C. […] The culture were centrifuged at 3000 rpm for 5 minutes (Sorvall RT 6000B). After centrifugation, the supernatant was decanted leaving the fungal pellets in the centrifuge tubes. The pellets were resuspended in 15 mL of SDB. Both suspensions were combined into one tube and mixed to generate a stock culture. […] After determining the concentration of the stock, appropriate dilutions were made with Sabouraud's Dextrose media to obtain 100 mL of 1×10^6 cell/mL. […] After the 1 hour incubation, all the tubes were centrifuged at 3000 rpm for 5 minutes. […] Louis, Mo.) in Dulbecco's PBS (DPBS, GIBCO, Grand Island, N.Y.) except the autofluorescence control, which was resuspended in DPBS alone. The tubes were mixed and incubated in the dark at room temperature for at least 20 minutes. […] The settings were adjusted appropriately to the following approximate parameters: Cells were analyzed (10,000 cells/tube) and their respective fluorescence determined. […] The population of dead (i.e., propidium iodide stained) fungal cells was determined by a fluorescence threshold between the negative control and positive control.

Candida parasilosis = type: cell-based
Procedure: as §2

Candida lusitaniae = type: cell-based
Procedure: as §2

[4] = type: physicochemical
Procedure: XMP.284 was soluble in water and unbuffered saline. XMP.284 was also soluble in 10 mM sodium phosphate, 150 mM sodium chloride pH 7. […] There was very little product loss, as measured by absorbance at 280 nm, in 0.15 M saline buffered with 10 mM acetate at pH 4, 5 or 6. […] Presently preferred is a formulation that includes 10 mM sodium acetate, 150 mM sodium chloride, pH 5.

[5] = test system: Candida albicans SLU-1 strain; assay: Serum stability, anti-fungal activity after serum incubation by radial diffusion bioassay; type: in vitro ADME, rat or human serum
Outline: as §1

Substance | half-life at 0.5 mg/mL [1] [h] | new HPLC peaks accumulated [2] | protection from endotoxemia-associated mortality ([3]; 0.5 mg/kg dose i.v., FIG. 9) | animals protected ([3]; 1 mg/kg dose i.v.) | Candida glabrata IC50 (Candida glabrata) [µg/mL] | Candida parasilosis IC50 (Candida parasilosis) [µg/mL] | Candida lusitaniae IC50 (Candida lusitaniae) [µg/mL] | solubility in the phosphate buffer on heating [4] | solubility in water and unbuffered saline [4] | Activity in Serum t ½ (hr.) [5]
H-SKVKWLIQLFHKK-NH2 [XMP.284] | 14.6 | less than 0.5% | significant protection | 14 of 15 | 6.27 | 1.82 | 1.20 | remained soluble | soluble | –
H-KSKVGWLIQLFHKK-NH2 [XMP.13] | – | – | – | – | – | – | – | – | – | indefinite
